Test results: paper PMC11513924, “Addressing the Intracellular Vestibule of the Plasmodial Lactate Transporter PfFNT by p-Substituted Inhibitors Amplifies In Vitro Activity” (Journal of Medicinal Chemistry, 2024)

How the values were obtained:
PfFNT [1] = target: T1, PfFNT (Plasmodium falciparum, UniProt O77389); experiment: Fluorescence cross-correlation spectroscopy (FCCS) competition binding to solubilized PfFNT-GFP; conditions: competition against BH267.meta-DY647 tracer, Cheng Prusoff; read-out: Ki (FCCS, protein)
T1 construct: expressed in transfected cells; membranes solubilized
T1 sequence (O77389 1-309): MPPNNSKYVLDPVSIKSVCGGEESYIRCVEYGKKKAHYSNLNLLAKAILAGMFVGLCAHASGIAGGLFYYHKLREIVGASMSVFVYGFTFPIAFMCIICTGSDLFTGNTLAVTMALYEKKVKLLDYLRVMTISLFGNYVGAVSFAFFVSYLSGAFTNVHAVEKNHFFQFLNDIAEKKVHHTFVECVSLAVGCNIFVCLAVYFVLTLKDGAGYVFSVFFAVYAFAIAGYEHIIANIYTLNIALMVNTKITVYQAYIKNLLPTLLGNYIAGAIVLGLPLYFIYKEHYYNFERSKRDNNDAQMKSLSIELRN
Experimental: FCCS measurements were conducted and analyzed as before.[20],[30] Briefly, membranes of stably transfected cells expressing PfFNT with a C-terminal GFP (green) were solubilized. BH267.meta 2 fused with DY647 (red) was used as a tracer to monitor the binding of compounds in a competition assay. Assays were done in […] glass bottom plates (cat. no. PS96B-G175, SWISSCI, Switzerland) using a plate reader (Insight, Evotec Technologies, Germany) fitted with a U-Apo300 40× water immersion lens, NA 1.15 (Olympus, Japan). Excitation was done with an argon-ion laser (488 nm) and a helium–neon laser (633 nm). Fluorescence fluctuations were recorded 10 times for 5 s per sample and fitted using FCS+ plus Analyze (PerkinElmer software). Initially, IC50 values were determined from the concentration of the dual labeled complex titrated against a competitor in a range of 100 pM to 100 μM (Figure S1). Then, Ki values were calculated using the Cheng Prusoff equation[31] based on the previously determined KD value for the BH267.meta-DY647 tracer.[20]

PfFNT [2] = target: T1, PfFNT; conditions: 14C-lactate transport, PfFNT wild type; ref Golldack[4] et al. 2017; read-out: IC50 (transport, yeast); cited from earlier work
[3] = system: Plasmodium falciparum 3D7 parasites; experiment: P. falciparum 3D7 culture growth assay in erythrocytes (in vitro activity); type: cell-based; conditions: 50 nM compound
Experimental: The parasitemia was measured using an LSR II FACS (BD Biosciences) as described.[34],[35] Growth was assessed as % of untreated control. EC50 curves were plotted using Graph Pad Prism.
Transport assays in yeast were done in triplicate biological replicates. At least nine technical replicates were measured around the IC50 value, concentrations with no or full inhibition were determined from at least three technical replicates. […] IC50 and EC50 curves were fitted by the Hill equation with variable slope (Graph Pad Prism 10). Error bars denote ± SEM (for n ≥ 3) or ± range (for n = 2). […] Cytotoxicity was determined from biological triplicates; error is shown as SEM.

[4] = system: Plasmodium falciparum 3D7 parasites; conditions: ref Golldack[4] et al. 2017; read-out: EC50 (in vitro, 3D7); cited from earlier work

MMV007839 [compound 1, reference compound]
Ki (PfFNT [1]): 83 ± 33 nM | IC50 (PfFNT [2]): 170 ± 10 nM | % Growth at 50 nM (in vitro, 3D7) ([3]; % of untreated control): > 90% | inhibitory activity at 50 nM (in vitro, 3D7) ([3]; 100 minus % growth): < 10% | EC50 [4]: 140 ± 10 nM
